{"source": "paper PMC9416150", "about": "“Development and Validation of [^3H]OF-NB1 for Preclinical Assessment of GluN1/2B Candidate Drugs” (Pharmaceuticals, 2022)", "key": {"GluN1/2B [1]": {"molecular_target": "T1, GluN1/2B (Rattus norvegicus, UniProt P35439+Q00960)", "T1 construct": "from tissue; host or cells: Wistar rat whole brain homogenate", "T1 sequence (Q00960 27-1482, other chains not shown)": "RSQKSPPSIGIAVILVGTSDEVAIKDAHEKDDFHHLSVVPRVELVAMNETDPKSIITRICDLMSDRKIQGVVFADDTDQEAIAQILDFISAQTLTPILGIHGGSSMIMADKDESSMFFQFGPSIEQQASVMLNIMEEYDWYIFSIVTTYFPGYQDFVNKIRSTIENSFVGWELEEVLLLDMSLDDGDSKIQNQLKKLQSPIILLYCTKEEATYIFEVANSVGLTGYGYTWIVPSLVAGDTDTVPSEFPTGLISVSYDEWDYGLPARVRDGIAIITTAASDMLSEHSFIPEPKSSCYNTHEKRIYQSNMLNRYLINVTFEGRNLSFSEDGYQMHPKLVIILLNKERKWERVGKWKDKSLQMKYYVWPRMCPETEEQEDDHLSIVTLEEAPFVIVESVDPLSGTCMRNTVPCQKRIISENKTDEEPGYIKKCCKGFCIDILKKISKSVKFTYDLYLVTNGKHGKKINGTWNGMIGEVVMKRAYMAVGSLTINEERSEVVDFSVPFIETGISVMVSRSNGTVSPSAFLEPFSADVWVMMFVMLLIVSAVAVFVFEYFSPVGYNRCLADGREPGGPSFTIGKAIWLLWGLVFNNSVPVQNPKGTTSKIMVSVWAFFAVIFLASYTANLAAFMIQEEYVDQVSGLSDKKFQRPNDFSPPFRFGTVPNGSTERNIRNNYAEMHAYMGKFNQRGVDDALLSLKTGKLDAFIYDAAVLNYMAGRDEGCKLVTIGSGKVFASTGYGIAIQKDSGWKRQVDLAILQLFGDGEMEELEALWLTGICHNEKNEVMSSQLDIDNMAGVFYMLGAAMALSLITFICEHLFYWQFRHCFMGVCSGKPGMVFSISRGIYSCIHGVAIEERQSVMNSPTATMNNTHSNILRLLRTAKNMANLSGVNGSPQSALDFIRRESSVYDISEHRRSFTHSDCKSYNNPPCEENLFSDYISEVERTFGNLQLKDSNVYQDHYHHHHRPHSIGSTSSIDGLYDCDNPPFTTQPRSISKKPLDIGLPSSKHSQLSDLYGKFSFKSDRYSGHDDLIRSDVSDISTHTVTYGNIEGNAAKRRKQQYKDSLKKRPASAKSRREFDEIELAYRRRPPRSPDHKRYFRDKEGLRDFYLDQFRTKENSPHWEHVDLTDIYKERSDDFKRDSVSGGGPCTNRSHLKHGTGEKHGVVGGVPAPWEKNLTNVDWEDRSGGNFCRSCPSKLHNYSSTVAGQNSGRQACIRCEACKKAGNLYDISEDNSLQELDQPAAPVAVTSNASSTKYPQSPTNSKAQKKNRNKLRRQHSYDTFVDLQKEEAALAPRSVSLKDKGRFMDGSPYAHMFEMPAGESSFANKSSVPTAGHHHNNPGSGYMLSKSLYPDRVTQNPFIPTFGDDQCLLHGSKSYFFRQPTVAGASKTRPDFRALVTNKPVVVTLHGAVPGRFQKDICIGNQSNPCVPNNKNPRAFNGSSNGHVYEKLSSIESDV", "experiment": "In vitro GluN1/2B competitive binding assay with [3H]OF-NB1", "details": "radioligand [3H]OF-NB1; Wistar rat brain homogenates; 25 °C", "procedure": "(§1) Competitive binding assays were performed as previously reported. […] A dilution series of the test ligands was prepared ranging from 30 µM to 300 pM. […] Each measurement vial contained 0.5 mg/mL of brain homogenate proteins, 20 µL of cold ligand, 10 µL of radioligand and was diluted to 200 µL with HEPES buffer. The vials were incubated at 25 °C and 110 rpm for 1 h. The mixtures were quenched with buffer and filtered through Whatman® GF/C 25 mm filters soaked with 0.05% PEI solution. Filters were washed twice with cold buffer and placed in scintillation vials. Scintillation vials were filled with 2 mL Ultima Gold^TM LSC cocktail and measured in a Beckmann LS6500 liquid scintillator counter."}, "GluN1/2B [2]": {"molecular_target": "T1, GluN1/2B", "experiment": "In vitro GluN1/2B competitive binding assay with [3H]ifenprodil", "details": "radioligand [3H]ifenprodil; Wistar rat brain homogenates; 25 °C", "procedure": "as §1"}, "GluN1/2B [3]": {"system": "GluN1/2B", "details": "cited from earlier work"}, "σ1R [4]": {"molecular_target": "T2, σ1R (Rattus norvegicus, UniProt Q9R0C9)", "T2 sequence (Q9R0C9 whole entry)": "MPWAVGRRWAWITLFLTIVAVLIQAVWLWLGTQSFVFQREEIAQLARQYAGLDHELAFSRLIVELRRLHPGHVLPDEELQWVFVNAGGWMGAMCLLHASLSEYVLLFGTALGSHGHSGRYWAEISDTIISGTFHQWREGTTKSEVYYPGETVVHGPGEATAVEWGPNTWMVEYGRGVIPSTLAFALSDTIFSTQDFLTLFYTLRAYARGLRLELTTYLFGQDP", "experiment": "In vitro σ1R competitive binding assay with (+)-[3H]pentazocine", "parameters": "from tissue; host or cells: brain of living Wistar rats (in vivo PET)", "details": "radioligand (+)-[3H]pentazocine; Wistar rat brain homogenates; 37 °C", "excerpt": "The mixtures were quenched with buffer and filtered through Whatman® GF/C 25 mm filters soaked with 0.05% PEI solution."}, "σ1R [5]": {"molecular_target": "T2, σ1R", "details": "Wistar rats; for %RO calculated / %RO predicted: σ1R occupancy, [18F]fluspidine", "procedure": "A series of doses were investigated, ranging from 0.05–15 mg/kg. […] There have been efforts to develop ligands with dual GluN1/2B and σ1R activity. Nonetheless, for the purpose of developing selective GluN1/2B ligands, one has to consider fundamentally reformulating the development strategy.\nAll non-aqueous reactions were performed under N2 atmosphere using flame-dried glassware and standard syringe/septa methods unless stated otherwise. Reactions were magnetically stirred and further monitored by thin layer chromatography (TLC) performed on Merck TLC aluminum sheets (silica gel 60 F254). TLC spots were visualized using UV light (λ = 254 nm) or through staining with KMnO4 solution. Chromatographic purification of products was performed using SiliaFlash P60 silica gel (Silicycle) for preparative column chromatography with a particle size of 40–63 μm (230–400 mesh). Reactions at −78 °C were cooled in a dry ice/acetone bath and reactions at 0 °C were cooled in an ice/water bath. Chemicals were purchased from ABCR, Acros Organics, Amatek Chemical, Fluorochem, Merck, Perkin Elmer and Sigma Aldrich and used without further purification. Solvents for TLC, extraction and flash column chromatography were of technical grade. Extra dry solvents for all non-aqueous reactions were supplied by Acros Organics (puriss., dried over molecular sieves, water content <0.005%). Deuterated solvents (D, 99.9%) were purchased from Cambridge Isotope Laboratories, Inc. NMR spectra of compounds 3, 7 and 8 are presented in the Supplementary Material (Section S1). Tritium labeling was performed by RC Tritec AG (Teufen, Switzerland). […] Positron emission tomography (PET) imaging was performed in Wistar rats according to a previously published procedure.\nStandard uptake values (SUVs) are averaged from 0–90 min."}, "GluN1/2B [6]": {"molecular_target": "GluN1/2B", "details": "cited from earlier work", "remark": "listed apart in the source"}, "σR": {"molecular_target": "σR", "details": "read-out: Ki (σ1R); published value using the σR ligand [3H]3-PPP; cited from earlier work"}, "σ2R": {"molecular_target": "σ2R", "parameters": "method as in earlier work", "details": "ref 18 (Hashimoto 2015); cited from earlier work"}, "σ1R [7]": {"molecular_target": "σ1R", "details": "cited from earlier work"}, "[8]": {"parameters": "method as in PMID 35710735", "details": "n = 4; cited from earlier work"}}, "note": "Like-named read-outs stand apart in the source and are kept apart here."}
{"smiles": "COc1ccc(CCN2CCN(CCCc3ccccc3)CC2)cc1OC", "note": "[SA-4503]", "values": [{"measurement": "Ki", "setting": "GluN1/2B [1]", "result": "> 100000", "unit": "nM"}, {"measurement": "Ki", "setting": "GluN1/2B [2]", "result": "51 ± 13", "unit": "nM"}]}
{"smiles": "C[C@@H]([C@@H](O)c1ccc(O)cc1)N1CCC(O)(c2ccccc2)CC1", "note": "[CP-101,606]", "values": [{"measurement": "D50 (GluN1/2B)", "setting": "GluN1/2B [3]", "result": 8.1, "unit": "µmol/kg"}, {"measurement": "Ki", "setting": "σ1R [4]", "result": "94 ± 6", "unit": "nM"}, {"measurement": "D50 (σ1R)", "setting": "σ1R [5]; administered dose occupying 50% of σ1Rs, [18F]fluspidine PET", "result": 4.9, "unit": "µmol/kg"}, {"measurement": "blockade of [18F]fluspidine brain uptake", "setting": "σ1R [5]; doses 0.05–15 mg/kg", "result": "dose-dependent blockade"}, {"measurement": "%RO calculated", "setting": "σ1R [5]; dose 0.05 mg/kg", "result": 3.72, "unit": "%"}, {"measurement": "%RO predicted", "setting": "σ1R [5]; dose 0.05 mg/kg", "result": 2.43, "unit": "%"}, {"measurement": "%RO calculated", "setting": "σ1R [5]; dose 3 mg/kg", "result": 61.9, "unit": "%"}, {"measurement": "%RO predicted", "setting": "σ1R [5]; dose 3 mg/kg", "result": 59.2, "unit": "%"}, {"measurement": "%RO calculated", "setting": "σ1R [5]; dose 7 mg/kg", "result": 71.2, "unit": "%"}, {"measurement": "%RO predicted", "setting": "σ1R [5]; dose 7 mg/kg", "result": 77.1, "unit": "%"}, {"measurement": "%RO calculated", "setting": "σ1R [5]; dose 15 mg/kg", "result": 91.2, "unit": "%"}, {"measurement": "%RO predicted", "setting": "σ1R [5]; dose 15 mg/kg", "result": 87.8, "unit": "%"}, {"measurement": "Ki", "setting": "GluN1/2B [6]; reported literature value", "result": 16, "unit": "nM"}, {"measurement": "Ki", "setting": "σR", "result": 60, "unit": "nM"}]}
{"smiles": "CC(C(O)c1ccc(O)cc1)N1CCC(Cc2ccccc2)CC1", "note": "(stereo not shown) [[^3H]Ifenprodil]", "values": [{"measurement": "Ki", "setting": "σ2R", "result": 1.89, "unit": "nM"}, {"measurement": "Ki", "setting": "σ1R [7]; ref 18 (Hashimoto 2015)", "result": 13, "unit": "nM"}, {"measurement": "Ki", "setting": "GluN1/2B [6]; ref 17 (Alarcon et al. 2008)", "result": 11, "unit": "nM"}]}
{"smiles": "Oc1ccc2c(c1)CCN(CCCCc1ccccc1F)CC2O", "note": "(stereo not shown) [OF-NB1]", "values": [{"measurement": "log D7.4", "setting": "[8]", "result": "2.05 ± 0.08"}, {"measurement": "Ki", "setting": "σ1R [7]; ref 22 (Ahmed et al. 2021)", "result": 410, "unit": "nM"}, {"measurement": "Ki", "setting": "GluN1/2B [6]; ref 22 (Ahmed et al. 2021)", "result": "10.4 ± 4.7", "unit": "nM"}]}
